Measurements reported in PubChem BioAssay (NCI).
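Growth conditions: 96-well plates. Treatment: test compound, 48 hours, 5 concentrations. Analysis: linear interpolation between bracketing concentrations; unreached endpoints set to highest concentration. TGI: concentration producing complete growth inhibition.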

How the values were obtained:
Assay in all cases: DTP human tumour cell line panel, 48 h
[1] = test system: COLO 205 colon
[2] = test system: OVCAR-3 ovarian
[3] = test system: CAKI-1 renal
[4] = test system: RXF 393 renal
[5] = test system: MCF7 breast
[6] = test system: MALME-3M melanoma
[7] = test system: LOX IMVI melanoma
[8] = test system: SF-539 CNS
[9] = test system: OVCAR-5 ovarian
[10] = test system: SF-295 CNS
[11] = test system: SW-620 colon
[12] = test system: NCI-H23 lung
[13] = test system: K-562 leukemia
[14] = test system: RPMI-8226 leukemia
[15] = test system: SNB-19 CNS
[16] = test system: NCI-H522 lung
[17] = test system: OVCAR-4 ovarian
[18] = test system: SK-MEL-2 melanoma
[19] = test system: SF-268 CNS
[20] = test system: OVCAR-8 ovarian
[21] = test system: EKVX NSCLC
[22] = test system: PC-3 prostate
[23] = test system: SN12C renal
[24] = test system: UACC-257 melanoma
[25] = test system: A549 NSCLC
[26] = test system: BT-549 breast
[27] = test system: NCI-H226 lung
[28] = test system: T-47D breast
[29] = test system: ACHN renal
[30] = test system: HCT-15 colon
[31] = test system: MDA-N
[32] = test system: NCI-H460 lung
[33] = test system: SK-MEL-28 melanoma
[34] = test system: UACC-62 melanoma
[35] = test system: HOP-92 NSCLC
[36] = test system: HT29 colon
[37] = test system: IGROV1 ovarian
[38] = test system: A498 renal
[39] = test system: MDA-MB-435
[40] = test system: SNB-75 CNS
[41] = test system: U251 CNS
[42] = test system: DU-145 prostate
[43] = test system: UO-31 renal
[44] = test system: KM12 colon
[45] = test system: SK-OV-3 ovarian
[46] = test system: NCI/ADR-RES ovarian
[47] = test system: HCC-2998 colon
[48] = test system: HL-60(TB) leukemia
[49] = test system: CCRF-CEM leukemia
[50] = test system: MOLT-4 leukemia
[51] = test system: SK-MEL-5 melanoma
[52] = test system: M14 melanoma
[53] = test system: 786-0 renal
[54] = test system: TK-10 renal
[55] = test system: HCT-116 colon
[56] = test system: MDA-MB-231 breast

COc1nc(-c2cn(S(=O)(=O)c3ccc(C)cc3)c3ccc(Br)cc23)cc(C(F)(F)F)c1C#N
TGI [1]: > 100 µM
TGI [2]: 35.8 µM
TGI [3]: > 100 µM
TGI [4]: 58.8 µM
TGI [5]: > 100 µM
TGI [6]: > 100 µM
TGI [7]: > 100 µM
TGI [8]: > 100 µM
TGI [9]: > 100 µM
TGI [10]: > 100 µM
TGI [11]: > 100 µM
TGI [12]: 44.9 µM
TGI [13]: > 100 µM
TGI [14]: 41.8 µM
TGI [15]: 62.4 µM
TGI [16]: > 100 µM
TGI [17]: > 100 µM
TGI [18]: > 100 µM
TGI [19]: > 100 µM
TGI [20]: 64.9 µM
TGI [21]: > 100 µM
TGI [22]: > 100 µM
TGI [23]: > 100 µM
TGI [24]: > 100 µM
TGI [25]: > 100 µM
TGI [26]: 74.2 µM
TGI [27]: 53.9 µM
TGI [28]: 42.9 µM
TGI [29]: > 100 µM
TGI [30]: > 100 µM
TGI [31]: > 100 µM
TGI [32]: > 100 µM
TGI [33]: > 100 µM
TGI [34]: > 100 µM
TGI [35]: > 100 µM
TGI [36]: > 100 µM
TGI [37]: > 100 µM
TGI [38]: > 100 µM
TGI [39]: > 100 µM
TGI [40]: 49.4 µM
TGI [41]: 35.2 µM
TGI [42]: 31.3 µM
TGI [43]: > 100 µM
TGI [44]: > 100 µM
TGI [45]: 59.5 µM
TGI [46]: > 100 µM
TGI [47]: > 100 µM
TGI [48]: > 100 µM
TGI [49]: > 100 µM
TGI [50]: > 100 µM
TGI [51]: > 100 µM

CC(C(N)=O)N(C)C(=O)c1cc2ccccc2[n+](Cc2ccccc2)c1 (centres undefined)
TGI [1]: > 100 µM
TGI [52]: > 100 µM
TGI [2]: > 100 µM
TGI [3]: > 100 µM
TGI [4]: > 100 µM
TGI [5]: > 100 µM
TGI [6]: > 100 µM
TGI [8]: > 100 µM
TGI [9]: > 100 µM
TGI [53]: > 100 µM
TGI [10]: > 100 µM
TGI [54]: > 100 µM
TGI [11]: > 100 µM
TGI [12]: > 100 µM
TGI [13]: > 100 µM
TGI [14]: > 100 µM
TGI [15]: > 100 µM
TGI [16]: > 100 µM
TGI [17]: > 100 µM
TGI [18]: > 100 µM
TGI [19]: > 100 µM
TGI [20]: > 100 µM
TGI [22]: > 100 µM
TGI [55]: > 100 µM
TGI [23]: > 100 µM
TGI [24]: > 100 µM
TGI [25]: > 100 µM
TGI [26]: > 100 µM
TGI [27]: > 100 µM
TGI [28]: > 100 µM
TGI [29]: > 100 µM
TGI [30]: > 100 µM
TGI [31]: > 100 µM
TGI [32]: > 100 µM
TGI [33]: > 100 µM
TGI [34]: > 100 µM
TGI [35]: > 100 µM
TGI [36]: > 100 µM
TGI [37]: > 100 µM
TGI [38]: > 100 µM
TGI [39]: > 100 µM
TGI [40]: > 100 µM
TGI [41]: > 100 µM
TGI [42]: > 100 µM
TGI [56]: > 100 µM
TGI [43]: > 100 µM
TGI [44]: > 100 µM
TGI [46]: > 100 µM
TGI [47]: > 100 µM
TGI [48]: > 100 µM
TGI [49]: > 100 µM
TGI [50]: > 100 µM
TGI [51]: > 100 µM
